Reference: PMC9032233, “2-{5-[(Z,2Z)-2-Chloro-3-(4-nitrophenyl)-2-propenylidene]-4-oxo-2-thioxothiazolidin-3-yl}-3-methylbutanoic Acid as a Potential Anti-Breast Cancer Molecule” (International Journal of Molecular Sciences, 2022)
Several values for one entry are separate records, joined by “and”; a condition that tells them apart may be missing. Identical values can stand only once.

Key:
CYP3A4 = biological target: T1, CYP3A4 (Homo sapiens, UniProt P08684); experiment: Luminescent CYP3A4 P450-Glo assay; type: in vitro ADME; details: at 10 and 25 µM
T1 construct: purchased Promega (Madison, WI, USA)
Description: (§1) For investigation of potential drug-drug interactions, the luminescent CYP3A4 and CYP2D6 P450-Glo assays obtained from Promega® (Madison, WI, USA) were used. Les-3331 was tested in triplicate at the final concentrations from 0.01 to 25 µM according to the protocols provided by Promega®. The reference inhibitors were tested at 1 µM. The luminescent signal was measured using a microplate reader, EnSpire PerkinElmer (Waltham, MA, USA).

CYP2D6 = biological target: T2, CYP2D6 (Homo sapiens, UniProt P10635); experiment: Luminescent CYP2D6 P450-Glo assay; type: in vitro ADME; details: at the highest dose 25 µM
T2 construct: purchased Promega (Madison, WI, USA)
Description: as §1

[1] = Parallel artificial membrane permeability assay (PAMPA); type: in vitro ADME; details: 200 µM in PBS pH 7.4, 5 h at RT, read-out: permeability coefficient Pe
Description: All in vitro assays used for the evaluation of Les-3331 ADME-Tox parameters were described previously. In brief, for the determination of permeability, Pre-coated PAMPA Plate System Gentest^TM was purchased from Corning (Tewksbury, MA, USA). […] PAMPA plates with compounds added to the donor wells were incubated for 5 h at RT. UPLC-MS Waters ACQUITY—TQD system with the TQ Detector (Waters, Milford, MI, USA) was used next for determination of compounds concentrations in donor and acceptor wells, which were required for calculation of permeability coefficient Pe according to formulas provided by the manufacturer.

[2] = Metabolic stability with rat liver microsomes (RLMs); type: in vitro ADME
Description: The metabolic stability was estimated using rat liver microsomes (RLMs) obtained from Sigma-Aldrich (St. Louis, MO, USA). Les-3331 was incubated in the presence of RLMs and NADPH Regeneration System (Promega, Madison, WI, USA) in Tris-HCl buffer (pH 7.4) for 120 min. Cold ethanol was added next to stop the reaction. The reaction mixture was centrifuged. The aforementioned UPLC-MS device was used to analyze the supernatant. MS/MS ion fragment analyses were performed for Les-3331 and the main metabolite. The in silico prediction of possible Les-3331 metabolic pathways was performed by MetaSite 8.0.1. Software (Molecular Discovery Ltd., Hertfordshire, UK).

[3] = test system: Salmonella Typhimurium TA100; details: Ames MPF
Description: The mutagenicity was evaluated using Ames microplate fluctuation protocol (MPF) from Xenometrix (Allschwil, Switzerland). The applied Salmonella Typhimurium TA100 strain was enabled to detect base-pair substitution (hisG46 mutation, for which target is GGG). Les-3331 was tested independently in two final concentrations, 1 and 5 µM, in triplicate. The reference mutagen 4-NQO was tested at 26.3 µM. The occurrence of revertants was visualized using pH indicator dye, which was present in the bacterial medium. The color changes from violet to yellow were confirmed using measurements of absorbance with a microplate reader, EnSpire, at 420 nm. According to the protocols and data sheets provided by Xenometrix, the medium control baseline (MCB) was calculated first, which refers to the number of revertants observed in the control (growth medium + 1% DMSO) plus standard deviation. Next, the Binomial B-value was calculated for tested compounds which indicates the probability that spontaneous mutations occurred. The fold increase ≥2 over the MCB and/or Binomial B-value ≥ 0.99 are considered as the mutagen alert.

T2 sequence (P10635 whole entry): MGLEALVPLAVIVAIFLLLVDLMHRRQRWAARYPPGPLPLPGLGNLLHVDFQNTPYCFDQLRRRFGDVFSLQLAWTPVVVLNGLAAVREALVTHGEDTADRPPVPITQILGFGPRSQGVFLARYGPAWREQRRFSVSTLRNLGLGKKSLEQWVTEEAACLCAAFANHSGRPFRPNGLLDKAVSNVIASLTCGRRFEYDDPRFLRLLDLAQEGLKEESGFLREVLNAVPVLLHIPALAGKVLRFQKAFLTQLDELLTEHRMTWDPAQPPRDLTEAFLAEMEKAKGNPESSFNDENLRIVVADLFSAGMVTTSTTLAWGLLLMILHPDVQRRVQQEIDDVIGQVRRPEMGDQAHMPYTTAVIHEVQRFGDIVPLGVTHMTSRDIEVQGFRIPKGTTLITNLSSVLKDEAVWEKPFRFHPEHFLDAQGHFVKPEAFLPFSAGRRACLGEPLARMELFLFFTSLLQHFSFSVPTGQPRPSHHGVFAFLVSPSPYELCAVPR
T1 sequence (P08684 whole entry): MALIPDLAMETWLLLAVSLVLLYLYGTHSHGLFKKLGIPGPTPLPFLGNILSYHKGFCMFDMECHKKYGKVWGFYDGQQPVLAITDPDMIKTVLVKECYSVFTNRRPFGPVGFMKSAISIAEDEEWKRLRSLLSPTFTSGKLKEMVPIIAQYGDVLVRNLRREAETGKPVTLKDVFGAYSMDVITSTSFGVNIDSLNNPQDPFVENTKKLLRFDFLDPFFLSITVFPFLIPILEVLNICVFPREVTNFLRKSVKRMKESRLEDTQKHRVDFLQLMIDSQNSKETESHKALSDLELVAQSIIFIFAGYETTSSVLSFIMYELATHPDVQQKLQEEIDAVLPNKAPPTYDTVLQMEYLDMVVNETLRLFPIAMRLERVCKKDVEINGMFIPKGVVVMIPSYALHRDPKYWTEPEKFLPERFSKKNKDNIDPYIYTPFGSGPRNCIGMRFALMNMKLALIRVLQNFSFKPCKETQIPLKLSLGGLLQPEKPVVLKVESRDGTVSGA

Compound: CC(C)C(C(=O)O)N1C(=O)/C(=C/C(Cl)=C/c2ccc([N+](=O)[O-])cc2)SC1=S (stereo not shown) [Les-3331, 2-{5-[(Z,2Z)-2-chloro-3-(4-nitrophenyl)-2-propenylidene]-4-oxo-2-thioxothiazolidin-3-yl}-3-methylbutanoic acid]
- effect on CYP3A4 activity (CYP3A4): activated
- effect on CYP2D6 activity (CYP2D6): slight inhibition
- Papp at 5 h, 200 µM [1]: 0.96 ×10⁻⁶ cm/s
- % of the Remaining Substrate ([2]; RLMs, 120 min incubation): 52% and 52.03%
- Proposed Metabolic Pathway ([2]; main metabolite M1, RLMs 120 min): decomposition
- Proposed Metabolic Pathway ([2]; metabolite M2, RLMs 120 min): decomposition and hydroxylation
- Proposed Metabolic Pathway ([2]; metabolite M3, RLMs 120 min): decomposition and dehydrogenation
- Proposed Metabolic Pathway ([2]; metabolite M4, RLMs 120 min): decomposition
- mutagenicity ([3]; TA100, 1 µM): not mutagenic
- fold increase in MCB ([3]; TA100, 5 µM): twofold increase in MCB was not reached
